Test results reported in US7476754B2, “Biphenyl derived thiamides as calpain inhibitors” (Consejo Superior de Investigaciones Cientificas, priority 2004, dated 2009).

The molecules below were run against T1, calpain I (Sus scrofa, UniProt P35750) (assay: Enzyme activity test: inhibition of calpain (EnzCheck protease assay kit, BODIPY FL casein, fluorescence)). Details: calpain I from porcine erythrocytes; BODIPY FL casein substrate; Tris-HCl pH 7.8; triplicate.
T1 construct: The calpain I from porcine erythrocytes; purchased CALBIOCHEM; host or cells: porcine erythrocytes (tissue-purified)
T1 sequence (P35750 1-714): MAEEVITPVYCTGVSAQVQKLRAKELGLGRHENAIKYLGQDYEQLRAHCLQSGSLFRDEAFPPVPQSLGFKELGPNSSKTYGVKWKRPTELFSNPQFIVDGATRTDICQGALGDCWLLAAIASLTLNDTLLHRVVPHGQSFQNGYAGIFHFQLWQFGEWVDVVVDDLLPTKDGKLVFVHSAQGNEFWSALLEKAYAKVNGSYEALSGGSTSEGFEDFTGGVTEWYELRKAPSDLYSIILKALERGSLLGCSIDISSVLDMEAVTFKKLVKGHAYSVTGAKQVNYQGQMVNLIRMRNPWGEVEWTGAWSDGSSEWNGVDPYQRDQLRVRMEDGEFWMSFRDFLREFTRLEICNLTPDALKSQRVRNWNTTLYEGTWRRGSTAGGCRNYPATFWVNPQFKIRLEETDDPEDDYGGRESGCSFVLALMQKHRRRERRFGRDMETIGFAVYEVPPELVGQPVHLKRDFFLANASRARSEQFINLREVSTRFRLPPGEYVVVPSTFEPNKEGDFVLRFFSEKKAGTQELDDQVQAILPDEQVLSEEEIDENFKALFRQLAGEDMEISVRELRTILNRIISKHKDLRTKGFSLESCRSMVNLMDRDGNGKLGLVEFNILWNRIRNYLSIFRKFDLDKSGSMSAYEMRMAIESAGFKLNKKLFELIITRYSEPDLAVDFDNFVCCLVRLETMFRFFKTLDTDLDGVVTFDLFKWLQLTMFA
T1 sequence (P04574 1-266 partner): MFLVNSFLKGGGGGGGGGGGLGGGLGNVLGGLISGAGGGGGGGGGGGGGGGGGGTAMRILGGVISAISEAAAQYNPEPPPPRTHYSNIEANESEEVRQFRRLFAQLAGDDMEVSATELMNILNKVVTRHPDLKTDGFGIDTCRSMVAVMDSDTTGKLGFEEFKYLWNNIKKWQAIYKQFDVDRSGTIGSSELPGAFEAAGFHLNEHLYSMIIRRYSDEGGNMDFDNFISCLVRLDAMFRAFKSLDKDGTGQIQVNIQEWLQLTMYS
Type: biochemical
Description: The calpain inhibition capacity has been quantified in terms of the value of IC50, which is defined as the concentration of inhibitor that reduces the catalytic activity of an enzyme by half. The lower the value of IC50, the more powerful the inhibitor. Inhibition results on calpain I (the most relevant from a physiological point of view) of some compounds of the present invention are shown in table 1 and in FIG. 1. Given that calpain II, also known as milli-calpain, needs a greater amount of calcium for activation, it might not possibly have such a relevant physiological role since such a concentration of calcium would cause cell death before the milli-calpain could become activated. For this reason, the inhibition tests have been performed for calpain I, though they can be extrapolated for calpain II.
The calpain inhibition capacity has been quantified in terms of the value of IC50, which is defined as the concentration of inhibitor that reduces the catalytic activity of an enzyme by half. The lower the value of IC50, the more powerful the inhibitor. Inhibition results on calpain I (the most relevant from a physiological point of view) of some compounds of the present invention are shown in table 1 and in FIG. 1.
In order to carry out the inhibition test on calpains, we used the EnzCheck® Protease Assay Kit E-338 from Molecular Probes. This kit contains casein marked with BODIPY FL®, freeze-dried from phosphate buffer. Also used as a digestion buffer was Tris-HCl at pH 7.8, containing 2 mM of sodium azide. The calpain I from porcine erythrocytes or calpain II from porcine kidney that were used are commercial products from CALBIOCHEM®. The enzyme stock solution contained 20 mM of imidazol-HCl buffer, pH 6.8, 1 mM EDTA, 1 mM EGTA, 5 mM β-mercaptoethanol, 30% in glycerol.
The synthetic inhibitors were dissolved in 250 μL of DMSO. The tests were conducted on 96-well microplates in a final volume of 200 μL. In order to carry out the test, aliquots of stock solution of calpain were added to 150 μL of a 10 μg/μL solution in digestion buffer in order to obtain a final concentration of 50 ng/mL of enzyme. Minimum quantities were added, between 5 and 20 μL of inhibitor solution in DMSO, previously diluted in order to achieve the desired final concentration of inhibitor, and digestion buffer was added until a volume of 190 μL was achieved. The test commenced by adding 10 μL of 0.05 M CaCl2 solution. For each inhibitor, separate measurements excluding inhibitor, calpain and calcium solution were taken as blanks. All measurements were made in triplicate.
The fluorescence measurements were made in a SPECTRAFLUOR TECAN Corp 93382 spectrum fluorimeter, exciting at 485 nm and taking the reading at 530 nm. The measurement was made over 20 cycles until the measurement of all wells was completed. Stirring was orbital type and took place each cycle.
Work on COC(=O)[C@H](Cc1ccccc1)NC(=S)c1ccccc1-c1ccccc1C(=S)N[C@@H](Cc1ccccc1)C(=O)OC [Compound 1, Methyl (S,S)-3-phenyl-2-{[2′-(2-phenyl-1-methoxycarbonyl-ethylthio-carbamoyl)-biphenyl-2-carbothiol]-amino}—propionate] yielded an IC50 of 94000 nM. COC(=O)[C@H](Cc1ccccc1)NC(=O)c1ccccc1-c1ccccc1C(=S)N[C@@H](Cc1ccccc1)C(=O)OC [Compound 2, Methyl (S,S)-3-phenyl-2-{[2′-(2-phenyl-1-methoxycarbonyl-ethylthio-carbamoyl)-biphenyl-2-carbonyl]-amino}-propionate] gave an IC50 of 63000 nM. With COC(=O)[C@H](Cc1c[nH]c2ccccc12)NC(=S)c1ccccc1-c1ccccc1C(=S)N[C@@H](Cc1c[nH]c2ccccc12)C(=O)OC [Compound 3, Methyl (S,S)-3-(1H-Indol-3-yl)-2-{[2′-(2-(1H-Indol-3-yl)-1-methoxycarbonyl-ethylthiocarbamoyl)-biphenyl-2-carbothioyl]-amino}-propionate] the IC50 was 0.038 nM. Work on COC(=O)[C@H](Cc1c[nH]c2ccccc12)NC(=O)c1ccccc1-c1ccccc1C(=S)N[C@@H](Cc1c[nH]c2ccccc12)C(=O)OC [Compound 4, Methyl (S,S)-3-(1H-Indol-3-yl)-2-{[2′-(2-(1H-Indol-3-yl)-1-methoxycarbonyl-ethylthiocarbamoyl)-biphenyl-2-carbonyl]-amino}-propionate] yielded an IC50 of 69 nM. With COC(=O)[C@@H](NC(=S)c1ccccc1-c1ccccc1C(=S)N[C@H](C(=O)OC)C(C)C)C(C)C [Compound 5, Methyl (S,S)-2-{[2′-(1-methoxycarbonyl-2-methyl-propylthiocarbamoyl)-biphenyl-2-carbothioyl]-amino}-3-methyl-butyrate] the IC50 was 71 nM. With COC(=O)[C@@H](NC(=O)c1ccccc1-c1ccccc1C(=S)N[C@H](C(=O)OC)C(C)C)C(C)C [Compound 6, Methyl (S,S)-2-{[2′-(1-methoxycarbonyl-2-methyl-propylthiocarbamoyl)-biphenyl-2-carbonyl]-amino}-3-methyl-butyrate] the IC50 was 0.052 nM. In the case of COC(=O)[C@H](Cc1ccc(O)cc1)NC(=S)c1ccccc1-c1ccccc1C(=S)N[C@@H](Cc1ccc(O)cc1)C(=O)OC [Compound 7], the IC50 is reported as 796 nM. COC(=O)[C@H](Cc1ccc(O)cc1)NC(=O)c1ccccc1-c1ccccc1C(=S)N[C@@H](Cc1ccc(O)cc1)C(=O)OC [Compound 8] was tested, and the IC50 was 12000 nM.
